According to the supplement of paper PMC4858399:
Counter-ions that a name gives are not always drawn.

How the values were obtained:
Details in all cases: exposure time 48 h
[1] = system: Caenorhabditis elegans N2; assay: mean nematode size ln(EXT) after 48 h, plate-adjusted (DMSO control set to 6) (ln(EXT), control-adjusted); higher = larger nematodes / less growth inhibition
How it was run: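 C. elegans N2 larvae, synchronised at L1, grew for 48 h at 20°C in K-medium with killed OP50, 1% DMSO and 0.5–200 µM chemical. Mean size per well was derived from natural-logged Biosort extinction after a growth model removed debris. Adjustment across plates involved subtracting the vehicle control mean and adding 6.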

[2] = system: Caenorhabditis elegans N2; assay: lowest effective concentration for larval growth inhibition (size below effect threshold); higher = less potent
How it was run: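 L1 larvae of C. elegans N2 (50 per 96-well) were grown in K-medium with killed bacteria and 1% DMSO, with the chemical at 0.5, 1, 5, 10, 50, 100 or 200 µM, for 48 h at 20°C. Per-worm extinction from the Biosort stood for size and was log-transformed into well means. For each chemical, the lowest effective concentration is the first dose where plate-adjusted mean size falls under the threshold and stays under it at the higher doses, using a threshold of 5.665.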

[3] = system: Caenorhabditis elegans N2; assay: AC50 for larval growth inhibition (Hill fit); higher = less potent
How it was run: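 Synchronised C. elegans N2 L1 larvae (50 per well, 96-well plates) were grown for 48 h at 20°C in K-medium with killed OP50, 1% DMSO and 0.5–200 µM chemical. The COPAS Biosort measured each worm's size as extinction, which was log-transformed and averaged per well. AC50 came from a constrained Hill fit by weighted genetic-algorithm regression on wells with at least 10 worms. Out-of-range values are censored.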

Row | Structure (SMILES) | mean nematode size ln(EXT) (ln) ([1]; 0.5 µM) | mean nematode size ln(EXT) (ln) ([1]; 1 µM) | mean nematode size ln(EXT) (ln) ([1]; 5 µM) | mean nematode size ln(EXT) (ln) ([1]; 10 µM) | mean nematode size ln(EXT) (ln) ([1]; 50 µM) | mean nematode size ln(EXT) (ln) ([1]; 100 µM) | mean nematode size ln(EXT) (ln) ([1]; 200 µM) | lowest effective concentration [2] [µM] | AC50 for larval growth inhibition [3] [µM]
1 | CCCCOC(=O)CCCCCCCCC(=O)OCCCC [Dibutyl sebacate] | 5.85 | 5.87 | 5.86 | 5.68 | 5.05 | 5.15 | 4.79 | 50 | 27
2 | Clc1ccccc1C(c1ccccc1)(c1ccccc1)n1ccnc1 [Clotrimazole] | 5.8 | 5.74 | 5.4 | 4.95 | 3.89 | 3.9 | 3.23 | 5 | 18.8
3 | O=[N+]([O-])c1cc(C(F)(F)F)c(Cl)c([N+](=O)[O-])c1Nc1ncc(C(F)(F)F)cc1Cl [Fluazinam] | 6.05 | 6.17 | 5.81 | 6.15 | 3.61 | 3.85 | 3.23 | 50 | 31.6
4 | CCN(CC)C(=O)C(C)Oc1cccc2ccccc12 (stereo not given) [Napropamide] | 5.97 | 5.95 | 5.93 | 6 | 6.01 | 5.62 | 5.43 | 100 | 97.3
5 | CCc1ccc(C(=O)NN(C(=O)c2cc(C)cc(C)c2)C(C)(C)C)cc1 [Tebufenozide] | 6.1 | 6.49 | 6.28 | 6.07 | 5.96 | 6.06 | 5.38 | 200 | > 200
6 | O=S(=O)(O)C(F)(F)C(F)(F)C(F)(F)C(F)(F)C(F)(F)C(F)(F)C(F)(F)C(F)(F)F [Heptadecafluorooctanesulfonic acid potassium salt] | 5.46 | 5.57 | 5.12 | 4.63 | 3.8 | 3.62 | 3.47 | ≤ 0.5 | 11.4
7 | COP(=O)(OC)SCn1c(=O)oc2cc(Cl)cnc21 [Azamethiphos] | 6.07 | 5.94 | 5.91 | 5.93 | 5.88 | 5.75 | 5.57 | 200 | > 200
8 | CC(C)(O)c1cnn2c(-c3ccc(F)c(-c4c(F)cccc4C#N)c3)cnc2n1 | 5.88 | 5.79 | 5.71 | 5.8 | 5.82 | 5.66 | 5.05 | 100 | > 200
9 | Cc1ccc(N)cc1N [2,4-Diaminotoluene] | 5.86 | 5.94 | 5.9 | 5.74 | 5.89 | 5.72 | 5.5 | 200 | > 200
10 | c1ccc2c(c1)-c1cccc3cccc-2c13 [Fluoranthene] | 5.79 | 5.87 | 5.65 | 5.05 | 4.05 | 3.8 | 4.82 | 5 | 9.33
